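How tested: cells in 96-well plates exposed to compound for 48 hours at five concentrations. The concentration for 50% growth inhibition is given as GI50.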 Active and inactive are the calls of the source. Cut-off read from the data, not from the text of the source: active = GI50 up to about 1.1 µM and inactive = higher.
Experiments:
Assay in all cases: NCI tumour cell line growth inhibition, 48 h
[1] = test system: HL-60
[2] = test system: M19-MEL
[3] = test system: EKVX
[4] = test system: A549
[5] = test system: K562
[6] = test system: MOLT-4
[7] = test system: UACC-257
[8] = test system: HCT-116
[9] = test system: HCC 2998
[10] = test system: SK-MEL-2
[11] = test system: SF-295
[12] = test system: IGROV-1
[13] = test system: OVCAR-8
[14] = test system: HOP-92
[15] = test system: SN12C
[16] = test system: NCI-H522
[17] = test system: SF-539
[18] = test system: HT-29
[19] = test system: M14

Measured: GI50

COC(=O)N1[C@H]2Cc3c(OC)c(C)c(OC)c(OC)c3[C@@H]1/C(=C\c1cc(OC)c(OC)c(C)c1OC)N(Cc1ccccc1)C2=O
inactive: [1] 5.52 µM | [2] 19.9 µM | [3] 37.7 µM | [4] 40.8 µM | [5] 26.2 µM | [6] 16.1 µM | [7] 23 µM | [8] 35.6 µM | [9] 8.51 µM | [10] 24.7 µM | [11] 39 µM | [12] 95.3 µM | [13] 32.4 µM | [14] 7.96 µM | [15] 40.6 µM | [16] 5.7 µM | [17] > 100 µM | [18] 45.1 µM | [19] 29.7 µM

N#C/C(=C/c1cccc(Oc2ccccc2)c1)c1ccccc1
inactive: [1] 64.7 µM | [2] > 100 µM | [3] > 100 µM | [4] > 100 µM | [5] 36.7 µM | [6] > 100 µM | [7] > 100 µM | [8] > 100 µM | [9] > 100 µM | [10] 66.5 µM | [11] 4.95 µM | [12] > 100 µM | [13] > 100 µM | [14] 93.8 µM | [15] > 100 µM | [16] > 100 µM | [17] > 100 µM | [18] > 100 µM | [19] > 100 µM

N/C(=N\N=C=C1C(=O)Nc2ccc(F)cc21)NO
inactive: [1] 47.5 µM | [2] > 100 µM | [3] 95.5 µM | [4] > 100 µM | [5] 95.9 µM | [6] > 100 µM | [7] > 100 µM | [8] > 100 µM | [9] > 100 µM | [10] > 100 µM | [11] > 100 µM | [12] > 100 µM | [13] > 100 µM | [14] 65.3 µM | [15] > 100 µM | [16] 86.1 µM | [17] > 100 µM | [18] > 100 µM | [19] > 100 µM

Reference: ChEMBL document CHEMBL1201862, “PubChem BioAssay data set” (2004)
